Laboratory results reported in patent US20240216412A1, “OXIDIZED NICOTINAMIDE ADENINE DINUCLEOTIDE (NAD+) PRECURSOR TREATMENT FOR HEART FAILURE ALLEVIATION INDEPENDENT OF MITOCHONDRIAL PROTEIN DEACETYLATION” (University of Washington, priority 2022, published 2024).

What was measured:
[1] = test system: cardiac mitochondria; assay: Isolated cardiac mitochondria respiration (oxygen electrode); assay type: in vivo, mouse; conditions: both genotypes
Description: Mitochondrial Isolation from cardiac tissue. Hearts were excised from mice, the aortas and atria were removed. Heart tissues were rinsed briefly in ice-cold mitochondria isolation medium (MIM) (70 mM sucrose, 220 mM mannitol, 5 mM MOPS, 1 mM EDTA, 0.025% fatty acid-free BSA, pH 7.4 with 5M KOH) to remove residual blood. Tissues were minced on ice and resuspended in fresh MIM, followed by trypsin digestion (10 ug/ml) and incubated on ice for 10 min. Trypsin digestion was stopped by the addition of trypsin inhibitor (0.5 mg/ml) and additional BSA (1 mg/ml) to MIM. The tissue pellets were resuspended in fresh MIM containing 1 mg/ml BSA, and transferred to a Teflon-glass tube and homogenized on ice with a Teflon pestle. The homogenates were centrifuged for 10 min at 800×g at 4° C. The supernatants were collected and centrifuged for 10 min at 8,000×g at 4° C. The supernatant was discarded and the mitochondrial pellets were resuspended in MIM to wash. The resuspension was centrifuged for 10 min at 8,000×g at 4° C., and the supernatant discarded. The mitochondrial pellet was resuspended to a concentrated volume for protein quantification by BCA Assay (Pierce).
Mitochondrial respirations. Isolated mitochondria respiration experiments were performed in an Clark type oxygen electrode Oxytherm System (Hansatech Instruments) at 30C. Briefly, freshly isolated mitochondria were added to respiration buffer (125 mM KCl, 20 mM HEPES, 3 mM MgCl2, 400 μM EGTA, 5 mM KH2PO4, 0.2% BSA (fatty acid free), pH 7.2) and placed in the respiration chamber to measure baseline respiration (State 1). The change in oxygen levels following the immediate addition of substrates (pyruvate/malate (5 mM/2 mM) or palmitoylcarnitine/malate (50 μM/2 mM) (State 2) followed by the sequential addition of 2.5 mM ADP (State 3), […] Oligomycin (State 4p) and 1 μM FCCP (FCCP Max). Antimycin A (2.5 μM) was added last to measure the residual oxygen consumption not accounted for by the electron transfer chain and it was subtracted from the previous measurements.

[2] = test system: RXRα; assay: Chromatin immunoprecipitation (ChIP) of RXRα at the Acadm promoter PPRE; assay type: in vivo; conditions: ISO mouse hearts, NR
Description: Chromatin immunoprecipitation (ChIP). The EZ ChIP kit (EMD Millipore catalog #17-371) was used according to the manufacturer's protocol. Briefly, heart tissue was cut into small pieces using a razor blade in a petri dish on ice. The cubed tissue was incubated in fixation solution (1% formaldehye) in a conical tube and rotated at room temperature for 15 minutes to crosslink proteins and chromatin. The reaction was stopped by adding 0.125M Glycine for 5 min at room temperature. The contents were homogenized with a hand-held tissue homogenizer for 45 seconds then pelleted by centrifugation for 3 minutes at 1,250×g at 4C. The supernatant was discarded and the pellet was resuspended in 10 ml ice-cold PBS wash buffer followed by centrifugation at 1,250×g for 3 minutes. This was wash step was repeated on ice. The supernatant was discarded and the pellet resuspended in 5 ml chromatin prep buffer and incubated on ice for 10 minutes. The resuspended pellet was homogenized on ice with a dounce homogenizer for 30 strokes and then contents transferred to new conical tube on ice. The suspension was centrifuged 3 minutes at 1,250×g at 4C then supernatant discarded. The pellet was resuspended in 1 ml Chip buffer and transferred to new centrifuge tube then incubated on ice for 10 minutes. […] Purified chromatin was analyzed on a 1% agarose gel to determine the shearing efficiency. […]

[3] = test system: chronic pressure overload (TAC) induced heart failure in WT and Sirt3Ko mice; assay: Survival, organ weight and histology (HW/TL, lung edema, fibrosis) after TAC; assay type: in vivo, mouse
Description: Mice randomly received either NR (500 mg/kg body weight) (Canto et al., 2012) or vehicle saline daily for eight-weeks. Representative M-mode images for the echocardiography can be found in FIGS. 1C and 1D. Four weeks of chronic pressure overload caused similar declines in left ventricular fractional shortening (FS %) in mice randomized to NR or vehicle groups for either WT or Sirt3Ko (FIGS. 1E and 1F). […] Similar to NR treated WT, cardiac hypertrophy, left ventricular cavity dilation, and lung edema were less severe in Sirt3Ko TAO mice that received NR treatment (FIGS. 1B-1J). All echocardiography parameters can be found in Table 1 below.
Transverse aortic constriction. Male mice (3-4 months old) underwent transverse aortic constriction (TAC) or sham surgery. Briefly, mice were anesthetized with an IP injection of 130 mg/kg ketamine and 8.8 mg/kg xylazine in saline. Mice were intubated with 20 G cannula and ventilated 140 breaths per minute by small animal TOPO ventilator (Kent Scientific). The aortic arch was exposed via a left thoracotomy and by carefully separating the thymus. A constriction of the transverse aorta was generated by tying a 6-0 Ethilon ligature against a 27-gauge blunt needle around the aorta between the brachiocephalic and left common carotid arteries. Promptly the needle was removed and the chest and skin were closed by 5-0 polypropylene suture. The animal was removed from ventilation and kept on a heating blanket during recovery from anesthesia. SR buprenorphine (0.05 mg/kg) was administered subcutaneously for analgesia. Sham operated mice underwent all the same procedures as TAC mice excluding the constriction of the aorta. All mice were monitored every 12 h during the first 72 h post-surgery, followed by daily visits over the next 4 weeks.
Organ weight and histological assessment. Hearts from mice were harvested, rinsed briefly in 1×PBS, blotted dry, and weighed. Lungs from the same mice were harvested, weighed, then dried at 56 C. After 72 hours the lungs were weighed again. Heart weight (HW) and Lung weight (LW) was normalized to tibia length (TL) to assess changes in hypertrophic growth and lung edema, respectively. For histology, hearts were perfusion fixed with 10% neutral buffered formalin. Longitudinal sections of hearts were stained with Masson's Trichrome for assessment of fibrosis by the University of Washington Histology and Imaging Core.

[4] = Sirt3Ko TAC mice, similar to NR treated WT

Compound: NC(=O)c1ccc[n+]([C@@H]2O[C@H](CO)[C@@H](O)[C@H]2O)c1 [NR, Nicotinamide riboside chloride]
- Mitochondrial respiratory function (State 3 respiration) ([1]; TAC, Complex I substrates): improved
- Palmitoylcarnitine (PLC) supported State 3 respiration (ADP stimulated) ([1]; cardiac mitochondria from ISO treated hearts, NR): restored
- Binding occupancy of RXRα to the PPARα response element (PPRE) in the Acadm promoter [2]: increased
- Fibrosis (Masson's trichrome) ([3]; Sirt3Ko TAC mice): decreased fibrosis
- Cardiac hypertrophy [3, 4]: less severe
- Lung edema [3, 4]: less severe
- Mortality (Kaplan-Meier survival curve analysis) ([3]; WT and Sirt3Ko TAC mice, NR vs vehicle for eight weeks): no significant difference in mortality
